Experimental data as given in paper PMC12322260, “Anticancer activity of triterpene glycosides from the sea star Solaster pacificus” (Scientific Reports, 2025).
Where “and” joins values, the source holds several entries; their conditions need not be identical. Equal entries are not always repeated.

How the values were obtained:
[1] = target: P-glycoprotein (P-gp) in PC3-DR cells (Homo sapiens, UniProt P08183); experiment: P-gp activity, calcein-AM assay; settings: 30 min
Description: A major contributor to docetaxel resistance is P-glycoprotein (also known as P-gp, MDR1), known to be overexpressed in PC3-DR cells. P-glycoprotein is a molecular efflux pump that actively expels various xenobiotic agents, including docetaxel, from cancer cells. Increased P-gp expression correlates with an increased IC50 for docetaxel, signifying enhanced drug resistance. […] In this assay, the non-fluorescent calcein-AM passively diffuses into cells, where it is hydrolyzed by cellular esterases into fluorescent calcein. Both calcein and its precursor are P-gp substrates and are actively transported out of P-gp-highly expressing cells (e.g. PC3-DR cells), which results in reduced intracellular fluorescence. P-gp inhibitors, such as tariquidar, block P-gp function, leading to calcein accumulation and an increase in fluorescence, which therefore can be used as a reliable indicator of reduced P-gp activity. A similar fluorescence increase is observed in the presence of docetaxel due to its competitive binding to the P-gp transporter alongside calcein[38].
Number of biological replicates n = 3. […] Number of biological replicates n = 3.
The evaluation of the activity of P-glycoprotein (P-gp) was performed using calcein-AM assay as described previously. […] The plates were incubated for 15 min, and the green calcein fluorescence was recorded using an Infinite F200PRO plate reader (TECAN). […]

PC3-DR cells [2] = experiment: cells; settings: Homo sapiens, 48 h
Description: Viability was evaluated using MTT assay, and IC50s were calculated using GraphPad Prism software. Number of biological replicates n = 3. […] Cells (6 × 10^3 cells/well in 100 μL/well of media) were plated in 96-well plates. The plates were incubated overnight, and the medium was replaced with fresh medium containing drugs at the indicated concentrations. The plates were further incubated for 48 h, unless otherwise stated, the solution of MTT reagent in PBS was added to each well, and cells were incubated for another 2–4 h to form formazan crystals. Then the media was removed and the plates were dried overnight. 50 μL of DMSO was added to each well to dissolve the formazan crystals. The absorbance of each well was measured using an Infinite F200PRO reader (TECAN, Männedorf, Switzerland). The cell viability was estimated as an inhibition concentration (IC50), which was calculated using GraphPad Prism software v.9.1.1 (GraphPad Software, San Diego, CA, USA). IC₅₀ values were determined by fitting the data to a nonlinear regression model (log[inhibitor] versus normalized response—variable slope).

PC3-DR cells [3] = experiment: Drug combination MTT assay, SynergyFinder ZIP analysis; type: cell-based, human; settings: 48 h
Description: (§1) Fig. 5 Effects of CuC1 in combination with taxanes and platinum agents. PC3-DR and 22Rv1 cells were co-treated with cisplatin (Cis), carboplatin (Carbo), docetaxel (Doce), or cabazitaxel (Caba) in combination with CuC1 at the indicated concentrations for 48 h. Cellular viability was evaluated using the MTT assay (number of biological replicates n = 3.) and is represented in the Supplementary Table S2. The cytotoxic effects were further analyzed, and 3D heat maps were constructed using SynergyFinder 3.0 software. The drug effects in combination (synergistic, additive, or antagonistic) were analyzed and visualized using the ZIP algorithm and are indicated by δ-score. δ > 10: Synergistic interactions (dark red area); […]: additive effect; δ < − 10: Antagonistic interactions (dark green area). A ZIP synergy score represents a mean δ overall the concentration range used.
(§2) The effect of combinational treatment with established chemotherapies was evaluated as previously reported^54. In brief, cells were exposed to individual drugs of their combinations for 48 h, and the viability was measured by MTT assay and was then analyzed using SynergyFinder 3.0 software (https://synergyfinder.fimm.fi) and the ZIP score algorithm. Statistical analysis was conducted automatically by the software using its inbuilt algorythms based on the input data type and size.

22Rv1 cells = experiment: as above; type: cell-based, human; settings: 22Rv1, 48 h
Description: as §1, §2

[4] = test system: HT-29, RPMI-7951, and MDA-MB-231 cells; set-up: method as in PMID 33799442; settings: nontoxic concentrations; cited from earlier work
phospho-JNK1/2 = experiment: Western blot analysis of MAP kinases; type: cell-based, human; settings: 22Rv1, 2 h
Description: (§3) Fig. 3 Functional kinome profiling of STKs (serine/threonine kinases) in 22Rv1 cells and validation of results. (a) Expression of apoptotic markers. The cells were treated with CuC1 for the indicated time, and the expression of proteins was analyzed by Western blotting. (b, c) Functional kinome profiling. A heatmap displaying log2-transformed phosphorylation levels of 99 analyzed STK substrate peptides (b) and upstream kinase analysis, which predicted kinases affected by CuC1 (c). Values of the normalized kinase statistics represented by bars, where log2 < 0 indicates decreased kinase activity and log2 > 0 denotes increased activity. Statistically significant changes having a specificity score log2 > 1.3 are highlighted by red bars. Number of biological replicates n = 3. (d), Western blot analysis of MAP kinases. 22Rv1 cells were treated with CuC1 for 2 h and the MAPK expression was analyzed by Western blotting. β-actin was used as a loading control. The band intensity of the protein of interest was quantified using Image Lab software and normalized to the band intensity β-actin (a), or to the band intensity of non-phospho MAPK (d), and is indicated by red numbers. Full-size blots are presented in Supplementary Fig. S2.
(§4) Western blotting was performed as previously described. In brief, 22Rv1 cells were seeded in Petri dishes (1 × 10^6 cells/dish in 10 mL/dish of media), incubated overnight, and treated with the drug for a specific time. Cells were harvested by scratching, washed with cold PBS, and lysed with RIPA buffer supplemented with protease and phosphatase inhibitor cocktails. Protein lysates were separated using precast Mini-PROTEAN® TGX Stain-FreeTM gels (Bio-Rad, Hercules, CA, USA) and SDS-PAGE. Proteins were transferred on a PVDF membrane and detected using specified primary and secondary antibodies. The protein signals were visualized and detected using the ECL chemiluminescence system (Thermo Scientific, Rockford, IL, USA). […] The signal (band) intensity was quantified using Image Lab v. […]

phospho-p38 = experiment: Western blot analysis of MAP kinases; type: cell-based, human; settings: 22Rv1, 2 h
Description: as §3, §4

phospho-ERK1/2 = experiment: Western blot analysis of MAP kinases; type: cell-based, human; settings: 22Rv1, 2 h
Description: as §3, §4

P-glycoprotein (P-gp) in PC3-DR cells, sequence (P08183 whole entry): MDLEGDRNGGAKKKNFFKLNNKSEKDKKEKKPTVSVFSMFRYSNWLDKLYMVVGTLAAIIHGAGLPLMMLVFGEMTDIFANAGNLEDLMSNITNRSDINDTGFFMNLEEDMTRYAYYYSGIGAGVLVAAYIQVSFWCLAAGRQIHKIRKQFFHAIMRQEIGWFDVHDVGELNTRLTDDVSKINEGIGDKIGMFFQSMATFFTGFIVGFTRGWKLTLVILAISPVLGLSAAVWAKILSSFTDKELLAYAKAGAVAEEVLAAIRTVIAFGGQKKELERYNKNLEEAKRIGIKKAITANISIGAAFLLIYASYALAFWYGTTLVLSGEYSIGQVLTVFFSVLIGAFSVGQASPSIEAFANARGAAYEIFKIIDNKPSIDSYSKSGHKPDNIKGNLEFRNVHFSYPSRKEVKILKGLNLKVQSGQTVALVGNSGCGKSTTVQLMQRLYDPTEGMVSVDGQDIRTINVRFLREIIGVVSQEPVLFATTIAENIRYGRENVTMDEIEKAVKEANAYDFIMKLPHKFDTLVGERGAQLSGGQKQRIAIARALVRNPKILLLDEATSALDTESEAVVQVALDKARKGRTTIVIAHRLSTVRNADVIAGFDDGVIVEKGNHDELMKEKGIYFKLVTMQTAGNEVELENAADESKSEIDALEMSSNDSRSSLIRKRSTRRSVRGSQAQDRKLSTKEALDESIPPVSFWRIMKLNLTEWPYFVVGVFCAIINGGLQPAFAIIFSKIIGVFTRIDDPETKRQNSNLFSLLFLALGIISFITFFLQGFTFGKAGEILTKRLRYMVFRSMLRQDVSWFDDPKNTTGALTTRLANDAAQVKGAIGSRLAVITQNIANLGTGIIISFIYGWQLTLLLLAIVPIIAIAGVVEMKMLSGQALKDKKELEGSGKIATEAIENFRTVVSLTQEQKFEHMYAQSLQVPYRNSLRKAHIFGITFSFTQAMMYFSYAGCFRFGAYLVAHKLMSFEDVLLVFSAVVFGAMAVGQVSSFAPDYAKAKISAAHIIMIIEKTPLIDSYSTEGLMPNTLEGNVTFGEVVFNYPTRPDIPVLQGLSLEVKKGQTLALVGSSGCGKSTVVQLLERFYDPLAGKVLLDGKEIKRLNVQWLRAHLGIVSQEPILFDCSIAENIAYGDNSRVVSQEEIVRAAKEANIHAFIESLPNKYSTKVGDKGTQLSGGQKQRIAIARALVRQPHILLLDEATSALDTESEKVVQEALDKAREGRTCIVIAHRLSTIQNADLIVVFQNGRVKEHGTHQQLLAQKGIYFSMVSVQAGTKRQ

CO[C@@H]1[C@@H](O)[C@H](O[C@@H]2[C@@H](O)[C@H](O[C@H]3[C@H](O)[C@@H](O[C@@H]4OC[C@@H](O)[C@H](O)[C@H]4O)[C@H](O[C@H]4[C@H](O[C@H]5CC[C@]6(C)[C@@H]7CCC89C(=O)O[C@@](C)(/C=C\C=C(C)C)[C@H]8[C@@H](OC(C)=O)C[C@@]9(C)C7=CC[C@H]6C5(C)C)OC[C@@H](O)[C@@H]4O)O[C@@H]3C)O[C@H](CO)[C@H]2O)OC[C@H]1O (stereo partly shown) [CuC1, cucumarioside C1]
P-gp activity (calcein-AM efflux) ([1]; glycosides at non-cytotoxic concentrations, controls TQD 50 nM, Doce 100 nM): did not result in any significant changes in calcein-AM efflux
intracellular calcein fluorescence ([1]; high cytotoxic concentrations): increase of intracellular fluorescence
IC50 (PC3-DR cells [2]): 5.69 ± 0.33 µM
Response (% of effect) (PC3-DR cells [3]; CuC1 1 μM alone): 33.69% and 25.1% and 26.58% and 38.2% and 34.475% and 30.33% and 41.47% and 24.44%
Response (% of effect) (PC3-DR cells [3]; CuC1 2 μM alone): 61.45% and 55.31% and 54.31% and 72.9% and 63.58% and 68.91% and 61.135% and 65.14%
Response (% of effect) (PC3-DR cells [3]; CuC1 4 μM alone): 90.21% and 89.15% and 83.68% and 93.87% and 94.47% and 92.06% and 92.89% and 96.86%
Response (% of effect) (22Rv1 cells; CuC1 0.25 μM alone): 31.1% and 43.16% and 29.95% and 34.58% and 29.34% and 26.82% and 33.12% and 30.57%
Response (% of effect) (22Rv1 cells; CuC1 0.5 μM alone): 81.71% and 82.23% and 73.42% and 77.37% and 76.17% and 72.77% and 72.16% and 76.9194%
Response (% of effect) (22Rv1 cells; CuC1 1 μM alone): 95.8597% and 95.08% and 89.09% and 94.3% and 94.37% and 95.8% and 97.07% and 93.71%
colony formation [4]: strongly suppressed the colony formation
active (phosphorylated) JNK1/2 (phospho-JNK1/2): but not JNK1/2
active (phosphorylated) p38 (phospho-p38): inhibition of active (phosphorylated) forms
active (phosphorylated) ERK1/2 (phospho-ERK1/2): inhibition of active (phosphorylated) forms
